Assay results: publication PMC12147355, “Targeted destruction of follicle stimulating hormone receptor-positive cancer cells in vitro and in vivo by a lytic peptide Phor21-FSHβ conjugate” (Molecular Medicine, 2025)
Like-named read-outs stand apart in the source and are kept apart here. Ends that are not written are not given here.

What was measured:
[1] = test system: HEK-293 xenografts; test: HEK-293 (FSHR-negative) cell xenografts in athymic nude male mice; assay type: in vivo; conditions: 8 mg/kg/72 h, 21 days, n = 8–12
Excerpt: (§1) All the mouse experiments were approved by the local ethics committee of the Medical University of Bialystok, Poland. Athymic nude males (Crl: NU(NCr)-Foxn1^nu, 8–10 weeks old, 20–23 g) purchased from Charles River Laboratories International, Inc. (Sulzfeld, Germany; RRID: SCR_003792) were housed two or three per cage and provided with sterilized pellet chow and water. The animals were maintained in a pathogen-free mouse colony at the Center of Experimental Medicine Animal Facility (Bialystok, Poland).
(§2) HEK293-FSHR, HEK-293, and LNCaP cells were treated with trypsin when they were nearly confluent and were harvested. The cells were centrifuged at 1100 rpm for 5 min and resuspended in sterile non-supplemented culture medium mixed 1:1 with the Matrigel® matrix (Corning, Corning, USA). The cell suspension (1 × 10^6 cells/0.2 ml - HEK293-FSHR and HEK-293 cells; 5 × 10^6 cells/0.2 ml – LNCaP cells) was injected subcutaneously into the interscapulum area. When the xenograft volume reached 150–200 mm^3 (5–8 days after implantation), the xenograft-bearing mice were randomly divided into treatment groups, as described in Suppl Table 2.
(§3) Three independent xenograft experiments were conducted. In the first set, we tested whether the Phor21-FSHβ33–53 C/S conjugate selectively targeted and destroyed FSHR-expressing HEK293-FSHR cells, using a proof-of-concept experiment. […]

[2] = test system: LNCaP xenografts; test: LNCaP cell xenografts in athymic nude male mice; assay type: in vivo; conditions: Phor21 8 mg/kg/72 h, Phor21-FSHβ 2 or 8 mg, 21 days; for growth of LNCaP xenografts (total xenograft volume at necropsy): CTX 5 mg/kg/48h, n = 10–12
Excerpt: as §1, §2
Three independent xenograft experiments were conducted. In the first set, we tested whether the Phor21-FSHβ33–53 C/S conjugate selectively targeted and destroyed FSHR-expressing HEK293-FSHR cells, using a proof-of-concept experiment. CTX was used to inhibit FSH secretion, which competed with Phor21-FSHβ33–53 C/S for FSHR-binding sites (Suppl Table 2). In the second set of experiments, we tested the specificity of the Phor21-FSHβ33–53 C/S conjugate using FSHR-negative HEK293 cells xenografted into nude mice (Suppl Table 2). Finally, in the third set of in vivo experiments, we tested whether Phor21-FSHβ33–53 C/S conjugate treatment could inhibit the growth of human prostate cancer LNCaP cell xenografts (FSHR-negative cells) by destroying FSHR-positive endothelial cells in xenograft tissues, as reported previously (Radu et al. [2010]) (Suppl Table 2). Phor21-FSHβ33–53 C/S was later on addressed as Phor21-FSHβ. […]

[3] = mouse, in vivo
Description: (§6) In each experimental set, the mice were sacrificed 3 days after the last injection. Total blood was collected via heart puncture under isoflurane anesthesia. The animals were euthanized by cervical dislocation. Body weight, selected organs, xenograft weights/volumes, and sizes were recorded at the time of necropsy. The xenografts and testes were fixed in 10% neutral buffered formalin or snap-frozen in liquid nitrogen for further experiments.

[4] = Body and organ weights at necropsy; conditions: nude males xenografted with HEK293-FSHR cells, Fig. S4
Description: as §6

[5] = test system: HEK293-FSHR xenografts; test: HEK293-FSHR cell xenografts in athymic nude male mice; assay type: in vivo
Excerpt: as §1, §2, §3

[6] = test system: FSH; test: Plasma FSH immunofluorometric assay in xenografted mice; assay type: in vivo; conditions: CTX 5 mg/kg/48h
Description: The plasma levels of FSH were analyzed via an immunofluorometric assay using the Delfia Enhancer system (PerkinElmer, Turku, Finland) according to the protocol described by van Casteren et al. (Casteren et al. [2000]). The FSH assay sensitivity was 0.1 µg/L, with an intra-assay CV of 4.3% and an interassay CV of 9.8% at 4.8 µg/L. The rat FSH standard (a gift from Dr. Albert Parlow from the National Institute of Diabetes and Digestive and Kidney Diseases, Bethesda, Maryland, USA) was diluted in Diluent II buffer (DELFIA Diluent II, PerkinElmer) to concentrations ranging from 50 ng/ml to 0.02 ng/ml for rat FSH. Enhanced fluorescence signals (DELFIA Enhancement Solution; PerkinElmer) were measured using a Victor^2 fluorometer (PerkinElmer).

[7] = Serum biochemical assay (Fuji Dri-Chem NX500); assay type: in vivo; conditions: HEK293-FSHR xenograft mice (n=8-9); Fig S7
Description: To quantify the serum levels of glucose, γ-glutamyltransferase (GGT), alanine aminotransferase (ALT) and aspartate aminotransferase (AST), biochemical assays were performed using Fuji Dri-Chem NX500 (Fujifilm Corporation®) according to the manufacturer’s instructions (Lei et al. [2021]).

[8] = test system: HEK-293 cells; test: CyQUANT cell proliferation assay, HEK-293 cells; assay type: cell-based, human; conditions: CTX 1, 5, 10, or 20 µM, 48 h; three independent experiments (n = 8/experiment)
Description: (§4) Cell proliferation was determined using a CyQUANT Cell Proliferation Assay (C7026, Life Technologies, Thermo Fisher Scientific). Prior to the experiments, HEK-293, HEK293-FSHR, and LNCaP cells were seeded in 96-well plates (7000 cells/well). After overnight incubation in the culture medium, the cells were starved for 4 h in basal non-supplemented DMEM/F12. […] After incubation, the medium was removed, and the plates with cells were frozen at −80 °C overnight. After thawing at room temperature (RT), 200 µl of CyQUANT GR dye/cell lysis buffer was added to each well and incubated for 5 min at room temperature (RT) in the dark. The fluorescence was read using a WALLAC Victor 2 1420 spectrophotometer (Perkin Elmer, Waltham, Massachusetts, USA) with ~ 480 nm excitation and ~ 520 nm emission maxima. The results were subtracted from a standard curve made from bacteriophage λ DNA (ranging from 50 pg/ml to 1.0 µg/ml) in CyQUANT GR/cell lysis buffer and are presented as absolute values.

[9] = test system: HEK293-FSHR cells; test: CyQUANT cell proliferation assay, HEK293-FSHR cells; assay type: cell-based, human; conditions: CTX 1, 5, 10, or 20 µM, 48 h; three independent experiments (n = 8/experiment)
Description: Cell proliferation was determined using a CyQUANT Cell Proliferation Assay (C7026, Life Technologies, Thermo Fisher Scientific). […] After overnight incubation in the culture medium, the cells were starved for 4 h in basal non-supplemented DMEM/F12. The cells were then treated for 48 h with rhFSH (10, 100, or 1000 IU/L) or cetrorelix (CTX) (1, 5, 10, or 20 µM; Sigma-Aldrich), and 2.5% FSC was used as a positive control. After incubation, the medium was removed, and the plates with cells were frozen at −80 °C overnight. After thawing at room temperature (RT), 200 µl of CyQUANT GR dye/cell lysis buffer was added to each well and incubated for 5 min at room temperature (RT) in the dark. The fluorescence was read using a WALLAC Victor 2 1420 spectrophotometer (Perkin Elmer, Waltham, Massachusetts, USA) with ~ 480 nm excitation and ~ 520 nm emission maxima.

[10] = test system: LNCaP cells; test: CyQUANT cell proliferation assay, LNCaP cells; assay type: cell-based, human; conditions: CTX 1, 5, 10, or 20 µM, 48 h; three independent experiments (n = 8/experiment)
Description: as §4

[11] = test system: HEK-293 cells; test: Caspase Glo 3/7 apoptosis assay, HEK-293 cells; assay type: cell-based, human; conditions: CTX 20 µM, 12 h
Description: (§5) Caspase 3/7 activity was assessed using a Caspase Glo 3/7 kit (Promega) according to the manufacturer’s protocol. In brief, cells were seeded at 10,000/well in a 96-well plate, attached overnight, and treated with vehicle (CTR) or CTX (20 µM) for 12 h. Staurosporin (STS, 0.5 µM) was used as a positive inducer of caspase3/7-mediated apoptosis. The absolute luminescence was normalized to the vehicle-treated control value.

[12] = test system: HEK293-FSHR cells; test: Caspase Glo 3/7 apoptosis assay, HEK293-FSHR cells; assay type: cell-based, human; conditions: CTX 20 µM, 12 h
Description: as §5

[13] = test system: LNCaP cells; test: Caspase Glo 3/7 apoptosis assay, LNCaP cells; assay type: cell-based, human; conditions: CTX 20 µM, 12 h
Description: as §5

| Substance | growth of HEK-293 xenografts (total xenograft volume at necropsy) [1] | histology of LNCaP xenografts [2] | growth of LNCaP xenografts (total xenograft volume at necropsy) [2] | spleen weight / size [3] | body weight [4] | testis weight [4] | histopathological analysis of xenograft tissues ([5]; histology, PARP1 staining) | xenograft growth compared with the control group (total xenograft volume at necropsy) ([5]; nude male mice, Phor21 8 mg/kg/72 h, Phor21-FSHβ 2 or 8 mg/kg/72 h, CTX 5 mg/kg/48h, 21 days, n = 10–12) | FSH secretion (plasma FSH levels) ([6]; mice with HEK293-FSHR xenografts) | FSH secretion (plasma FSH levels) ([6]; mice with LNCaP xenografts) | serum ALT vs CTR group [7] | serum AST vs CTR group [7] | serum GGT vs CTR group [7] | proliferation of HEK-293 cells [8] | proliferation of HEK293-FSHR cells [9] | proliferation of LNCaP cells [10] | caspase 3/7 activity in HEK-293 cells [11] | caspase 3/7 activity in HEK293-FSHR cells [12] | caspase 3/7 activity in LNCaP cells [13] | spleen weight / size [4] |
| --- | --- | --- | --- | --- | --- | --- | --- | --- | --- | --- | --- | --- | --- | --- | --- | --- | --- | --- | --- | --- |
| KFAKFAKKFAKFAKKFAKFAK-NH2 [Phor21, lytic peptide Phor21 backbone, triple heptade KFAKFAK] | did not affect the growth | no changes | no changes | No significant differences | No significant differences | No significant differences |  |  |  |  |  |  |  |  |  |  |  |  |  |  |
| cetrorelix [CTX] |  |  | inhibited xenograft growth |  |  | significantly reduced | apoptosis | reduced xenograft growth | significantly decreased | inhibited FSH secretion | did not affect | did not affect | did not affect | dose-dependently decreased | dose-dependently decreased | dose-dependently decreased | activated | activated | activated | increased |
